Results on eleven compounds are retold here after patent publication US11267844B2, “Spirothietane nucleosides” (Janssen Pharmaceutica NV, priority 2017, dated 2022).

Where two headings read alike, the source gives them in different places. Some results are limits rather than exact numbers.

As a reminder, the EC50 is the concentration that produces a half-maximal response. In general, CC50 refers to the concentration giving 50% cytotoxicity.

Data set [1] concerns HCV replicon (NS3-NS5B regions of HCV type 1b) in Huh-7 luc/neo cells. Description: HCV replicon assay (Huh-Luc cells, luciferase read-out). The settings on record: Hepatitis C virus. Type of data set: cell-based. An excerpt:
The compounds of Formula (I) were examined for activity against HCV in a cellular assay. […] The cellular assay was based on a bicistronic expression construct, as described by Lohmann et al. (1999) Science vol. 285 pp. 110-113 with modifications described by Krieger et al. (2001) Journal of Virology 75: 4614-4624, in a multi-target screening strategy.
In essence, the method was as follows. The assay utilized the stably transfected cell line Huh-7 luc/neo (hereafter referred to as Huh-Luc). This cell line harbors an RNA encoding a bicistronic expression construct comprising the wild type NS3-NS5B regions of HCV type 1b translated from an internal ribosome entry site (IRES) from encephalomyocarditis virus (EMCV), preceded by a reporter portion (FfL-luciferase), and a selectable marker portion (neo^R, neomycine phosphotransferase). The construct is bordered by 5′ and 3′ NTRs (non-translated regions) from HCV genotype 1b. Continued culture of the replicon cells in the presence of G418 (neo^R) is dependent on the replication of the HCV-RNA. The stably transfected replicon cells that express HCV-RNA, which replicates autonomously and to high levels, encoding inter alia luciferase, were used for screening the antiviral compounds.
The replicon cells were plated in 384-well plates in the presence of the test and control compounds which were added in various concentrations. Following an incubation of three days, HCV replication was measured by assaying luciferase activity (using standard luciferase assay substrates and reagents and a Perkin Elmer ViewLux™ ultraHTS microplate imager). Replicon cells in the control cultures have high luciferase expression in the absence of any inhibitor. The inhibitory activity of the compound on luciferase activity was monitored on the Huh-Luc cells, enabling a dose-response curve for each test compound. EC50 values were then calculated, which value represents the amount of the compound required to decrease the level of detected luciferase activity by 50%, or more specifically, the ability of the genetically linked HCV replicon RNA to replicate.
Background: A replicon is a self-replicating genome or part of one, used to study replication in cells.

Data set [2] deals with CHIKV strain S27. As to the kind of experiment: CHIKV CPE inhibition assay in Huh7 cells. Type of data set: cell-based. To be noted: Chikungunya virus. How it is done: The antiviral activities of the nucleoside analogs against chikungunya virus (CHIKV) were tested using a cell-based high-throughput CPE (cytopathic effect) inhibition assay. In this assay, CHIKV strain S27 and Huh7 cells (a human hepatoma cell line) were employed. The test compounds were prepared in a 9-point fourfold serial dilutions and plated in a 384-well plate. Then, a density of 8000 cells/well and an MOI (Multiplicity of Infection) of 0.25 CHIKV were added to each well. The plates were incubated at 37° C./5% CO2 for 2 days. The antiviral activity of a test compound was measured by addition of an ATPLite™ 1-step kit (PerkinElmer), which measures the ATP levels in live cells protected from viral CPE by a test compound. The cytotoxicity of test compounds was measured in parallel in the absence of virus infection. The readout is luminescence.

For data set [3], the system named is DENV-2/16681/eGFP. Description: Antiviral activity against DENV-2/16681/eGFP in Huh-7 cells (eGFP read-out). Type of data set: cell-based, dengue virus serotype 2. To be noted: Dengue virus, DENV2, Huh-7, 72 h, read-out: DENV Huh-7 (EC50, μM). On the procedure: (§1) The antiviral activity of the compounds against DENV-2/16681/eGFP was determined in a phenotypic antiviral assay with eGFP read-out, a measure for the amount of virus (TV-WI-03476 and TV-WI-05601). In parallel, cytotoxicity of the compounds was measured using ATPLite™ (PerkinElmer, Waltham, Mass.). The assay was performed in two different cell-lines (Vero and Huh-7) to exclude cell-specific activity of the compound.
(§2) DENV-2/16681/eGFP was produced by the transfection of the in vitro transcribed RNA of plasmid pFK-DVs-G2A (purchased from Prof. R. Bartenschlager, University of Heidelberg, Germany; FIG. 1) into Huh-7 cells (human hepatocarcinoma cells; kindly provided by Prof. R. Bartenschlager) (TV-WI-04247).
(§3) In brief, 2,500 Vero cells (African green monkey kidney cells; European Collection of Cell Cultures [ECACC], Porton Down, UK; catalogue number 84113001) or Huh-7 cells were seeded in 384-well plates containing 9-fold serially diluted test compound. After incubating 24 h at 37° C., Vero and Huh-7 cells were infected with DENV-2/16681/eGFP at a multiplicity of infection (MOI) of 1 and 5, respectively. After 3 days of incubation at 37° C., the viral replication was quantified by measuring eGFP expression in the cells with a laser microscope. The 50% effective concentration (EC50) was defined as the concentration inhibiting 50% of the eGFP expression of the compound-treated DENV-infected cells vs. the untreated DENV-infected cells (virus control), using the cell controls as baseline of eGFP signal (i.e., 0% signal). In the same way, the 90% effective concentration (EC90) was calculated.

A short description of data set [4]: Cytotoxicity in Huh-7 cells (ATPlite cell viability). The class given is cell-based. The settings on record: human, Table 1A, read-out: Tox Huh-7 (CC50). How it is done:
as §1
(§4) In parallel, cytotoxic effects of the compounds (50% cytotoxic concentration [CC50] and 90% cytotoxic concentration [CC90]) were evaluated using an ATPlite cell viability luminescence assay (PerkinElmer). To this end, ATPlite was added to the wells according to the supplier's instructions once the eGFP read-out was performed, and the luminescence was measured; a measure directly relating to the number of viable cells. The CC50 was determined as the 50% inhibitory concentration for the luminescent signal in compound-treated DENV-infected cells compared to untreated DENV-infected cells (virus control), using a medium control as baseline of emitted light (i.e., 0% signal).

Data set [5] has as its system DENV-2/16681/eGFP. As to the kind of experiment: Antiviral activity against DENV-2/16681/eGFP in Vero cells (eGFP read-out). The settings on record: Dengue virus, DENV2, Vero, 72 h, read-out: DENV Vero (EC50, μM). Type of data set: cell-based, dengue virus serotype 2. How it is done: as §1, §2, §3
The nature of data set [6]: Cytotoxicity in Vero cells (ATPlite cell viability). To be noted: African green monkey, Table 1A, read-out: Tox Vero (CC50). The class given is cell-based. On the procedure:
as §1, §4
A general note: Cellular ATP, detected with luciferase, serves as a proxy for viable cell number.

Setting [7] is: Huh-7, Table 1C, comparison with spiro-oxetane derivatives, read-out: HCV, Huh-7 (EC50).
Setting [8] is: Huh-7, Table 1C, comparison with spiro-oxetane derivatives, read-out: CHIKV, Huh7 (EC50).
[9] abbreviates: Huh-7, 72 h, Table 1A, Huh-Luc replicon cells, 3 days, read-out: HCV Huh-7 (EC50).
Setting [10] is: Huh-7, 48 h, Table 1A, Huh7 cells, MOI 0.25, 2 days, read-out: CHIKV Huh-7 (EC50).
Setting [11] is: Huh-7, 48 h, read-out: CHIKV Huh-7 (EC50, μM).

`CC(C)OC(=O)[C@H](C)NP(=O)(OC[C@H]1O[C@@H](n2ccc(=O)[nH]c2=O)[C@@]2(CCO2)[C@@H]1O)Oc1ccccc1` (mixture of isomers) [reference compound]: the concentration for a half-maximal effect (EC50) in data set [1] (setting [7]) is 21 µM; in data set [2] (setting [8]) it was more than 100 µM.
With `CC(C)OC(=O)[C@H](C)NP(=O)(OC[C@@]1(F)O[C@@H](n2ccc(=O)[nH]c2=O)[C@@]2(CCO2)[C@@H]1O)Oc1ccccc1` (mixture of isomers) [reference compound], the 50% effective concentration (EC50) in data set [1] (setting [7]) and in data set [2] (setting [8]) was more than 100 µM in each case.
As for `CC(C)OC(=O)C(C)NP(=O)(OC[C@@]1(N=[N+]=[N-])O[C@@H](n2ccc(=O)[nH]c2=O)[C@@]2(CCS2)[C@@H]1O)Oc1ccccc1` (stereo in doubt) [Compound 45, isopropyl (2R)-2-[[[(4R,5R,6R,8R)-6-azido-8-(2,4-dioxopyrimidin-1-yl)-5-hydroxy-7-oxa-1-thiaspiro[3.4]octan-6-yl]methoxy-phenoxy-phosphoryl]amino]propanoate], the EC50 was 5 µM in data set [1] (setting [9]), 62 µM in data set [3], 62 µM in data set [5] and more than 100 µM in data set [2] (setting [10]). For the same compound, the CC50 in data set [4] and in data set [6] was more than 100 µM throughout.
Turning to `O=c1ccn([C@@H]2O[C@H](CO)[C@@H](O)[C@]23CCS3)c(=O)[nH]1` [Compound 7, 1-((4R,5R,7R,8R)-8-hydroxy-7-(hydroxymethyl)-6-oxa-1-thiaspiro[3.4]octan-5-yl)pyrimidine-2,4(1H,3H)-dione], the 50% effective concentration (EC50) in data set [1] (setting [9]) and in data set [5] was more than 100 µM each time. In addition, the half-maximal cytotoxic concentration (CC50) in data set [4] and in data set [6] was more than 100 µM throughout.
With `CC(C)OC(=O)[C@H](C)NP(=O)(OC[C@H]1O[C@@H](n2ccc(=O)[nH]c2=O)[C@@]2(CCS2)[C@@H]1O)Oc1ccccc1` (stereo partly drawn) [Compound 9, (2S)-isopropyl 2-(((((4R,5R,7R,8R)-5-(2,4-dioxo-3,4-dihydropyrimidin-1(2H)-yl)-8-hydroxy-6-oxa-1-thiaspiro[3.4]octan-7-yl)methoxy)(phenoxy)phosphoryl)amino)propanoate], the EC50 is 1 µM in data set [1] (setting [9]); 1 µM in data set [1] (setting [7]); 9 µM in data set [3]; more than 100 µM in data set [5]; 18 µM in data set [2] (setting [10]); 18 µM in data set [2] (setting [8]). The CC50 in data set [4] and in data set [6] was more than 100 µM in each case.
Consider `CC(C)C(=O)OC[C@H]1O[C@@H](n2ccc(=O)[nH]c2=O)[C@@]2(CCS2)[C@@H]1OC(=O)C(C)C` [Compound 10, (4R,5R,7R,8R)-5-(2,4-dioxo-3,4-dihydropyrimidin-1(2H)-yl)-7-((isobutyryloxy)methyl)-6-oxa-1-thiaspiro[3.4]octan-8-yl isobutyrate], for which the EC50 in data set [1] (setting [9]), in data set [3], in data set [5] and in data set [2] (setting [11]) was more than 100 µM each time. The CC50 in data set [4] and in data set [6] was more than 100 µM in each case.
With `CC(C)C(=O)OC[C@H]1O[C@@H](n2ccc(N)nc2=O)[C@@]2(CCS2)[C@@H]1OC(=O)C(C)C` [Compound 11, (4R,5R,7R,8R)-5-(4-amino-2-oxopyrimidin-1(2H)-yl)-7-((isobutyryloxy)methyl)-6-oxa-1-thiaspiro[3.4]octan-8-yl isobutyrate], the EC50 in data set [1] (setting [9]), in data set [3], in data set [5] and in data set [2] (setting [11]) was more than 100 µM throughout. Also, the CC50 in data set [4] and in data set [6] was more than 100 µM in each case.
Consider `Nc1ccn([C@@H]2O[C@H](CO)[C@@H](O)[C@]23CCS3)c(=O)n1` [Compound 12, 4-amino-1-((4R,5R,7R,8R)-8-hydroxy-7-(hydroxymethyl)-6-oxa-1-thiaspiro[3.4]octan-5-yl)pyrimidin-2(1H)-one], for which the EC50 in data set [1] (setting [9]), in data set [3], in data set [5] and in data set [2] (setting [11]) was more than 100 µM throughout. The CC50 in data set [4] and in data set [6] was more than 100 µM throughout.
`CC(C)OC(=O)[C@H](C)NP(=O)(OC[C@H]1O[C@@H](n2ccc(N)nc2=O)[C@@]2(CCS2)[C@@H]1O)Oc1ccccc1` (stereo partly drawn) [Compound 17, (2S)-isopropyl 2-(((((4R,5R,7R,8R)-5-(4-amino-2-oxopyrimidin-1(2H)-yl)-8-hydroxy-6-oxa-1-thiaspiro[3.4]octan-7-yl)methoxy)(phenoxy)phosphoryl)amino)propanoate]: the EC50 is more than 50 µM in data set [1] (setting [9]), 19 µM in data set [3], more than 50 µM in data set [5] and more than 50 µM in data set [2] (setting [10]). Also, the CC50 in data set [4] and in data set [6] was more than 50 µM in each case.
Turning to `O=c1ccn([C@@H]2O[C@](F)(CO)[C@@H](O)[C@]23CCS3)c(=O)[nH]1` [Compound 22, 1-((4R,5R,7S,8R)-7-fluoro-8-hydroxy-7-(hydroxymethyl)-6-oxa-1-thiaspiro[3.4]octan-5-yl)pyrimidine-2,4(1H,3H)-dione], the EC50 was 84 µM in data set [1] (setting [9]), 69 µM in data set [3], 63 µM in data set [5] and more than 100 µM in data set [2] (setting [11]). The cytotoxic concentration (CC50) in data set [4] and in data set [6] was more than 100 µM in each case.
Regarding `CC(C)OC(=O)[C@H](C)NP(=O)(OC[C@@]1(F)O[C@@H](n2ccc(=O)[nH]c2=O)[C@@]2(CCS2)[C@@H]1O)Oc1ccccc1` (stereo partly drawn) [Compound 23, (2S)-isopropyl 2-(((((4R,5R,7S,8R)-5-(2,4-dioxo-3,4-dihydropyrimidin-1(2H)-yl)-7-fluoro-8-hydroxy-6-oxa-1-thiaspiro[3.4]octan-7-yl)methoxv)(phenoxy)phosphoryl)amino)propanoate], the EC50 in data set [1] (setting [9]) was determined as 2 µM; in data set [1] (setting [7]), 2 µM; in data set [3], 14 µM; in data set [5], 85 µM; in data set [2] (setting [10]), 3 µM; in data set [2] (setting [8]) it was 3 µM. In addition, the CC50 in data set [4] and in data set [6] was more than 100 µM throughout.
